According to patent US10202361B2, “Pyridazinones as herbicides” (E I DU PONT DE NEMOURS AND COMPANY, priority 2014, dated 2019):

How the values were obtained:
Assay type in all cases: in vivo
[1] = test system: barnyardgrass (Echinochloa crus-galli); test: Test A pre-/postemergence greenhouse herbicide test; conditions: 0 to 100 scale (0 no effect, 100 complete control), approx. 10 d
Source text: (§1) Seeds of plant species selected from barnyardgrass (Echinochloa crus-galli), crabgrass, Large (large crabgrass, Digitaria sanguinalis), foxtail, giant (giant foxtail, Setaria faberii), morningglory (Ipomoea spp.), pigweed (Amaranthus retroflexus), velvetleaf (Abutilon theophrasti), wheat (Triticum aestivum), and corn (Zea mays) were planted into a blend of loam soil and sand and treated preemergence with a directed soil spray using test chemicals formulated in a non-phytotoxic solvent mixture which included a surfactant. At the same time these species were also treated with postemergence applications of test chemicals formulated in the same manner.
(§2) Plants ranged in height from 2 to 10 cm and were in the one- to two-leaf stage for the postemergence treatment. Treated plants and untreated controls were maintained in a greenhouse for approximately 10 d, after which time all treated plants were compared to untreated controls and visually evaluated for injury. Plant response ratings, summarized in Table A, are based on a 0 to 100 scale where 0 is no effect and 100 is complete control. A dash (-) response means no test result.

corn (Zea mays) = test: as above; conditions: 0 to 100 scale (0 no effect, 100 complete control), approx. 10 d
Source text: as §1, §2

[2] = test system: crabgrass, Large (large crabgrass, Digitaria sanguinalis); test: as above; conditions: 0 to 100 scale (0 no effect, 100 complete control), approx. 10 d
Source text: as §1, §2

[3] = test system: foxtail, giant (giant foxtail, Setaria faberii); test: as above; conditions: 0 to 100 scale (0 no effect, 100 complete control), approx. 10 d
Source text: as §1, §2

[4] = test system: morningglory (Ipomoea spp.); test: as above; conditions: 0 to 100 scale (0 no effect, 100 complete control), approx. 10 d
Source text: as §1, §2

[5] = test system: pigweed (Amaranthus retroflexus); test: as above; conditions: 0 to 100 scale (0 no effect, 100 complete control), approx. 10 d
Source text: as §1, §2

[6] = test system: velvetleaf (Abutilon theophrasti); test: as above; conditions: 0 to 100 scale (0 no effect, 100 complete control), approx. 10 d
Source text: as §1, §2

[7] = test system: wheat (Triticum aestivum); test: as above; conditions: 0 to 100 scale (0 no effect, 100 complete control), approx. 10 d
Source text: as §1, §2

[8] = test system: barnyardgrass (Echinochloa crus-galli); test: Test B flooded paddy test; conditions: Flood, scale of 0 to 100, 0 is no effect, 100 is complete control, 13 to 15 d
Procedure: (§3) Plant species in the flooded paddy test selected from rice (Oryza sativa), small-flower sedge, umbrella (small-flower umbrella sedge, Cyperus difformis), ducksalad (Heteranthera limosa), and barnyardgrass (Echinochloa crus-galli) were grown to the 2-leaf stage for testing. At time of treatment, test pots were flooded to 3 cm above the soil surface, treated by application of test compounds directly to the paddy water, and then maintained at that water depth for the duration of the test. Treated plants and controls were maintained in a greenhouse for 13 to 15 d, after which time all species were compared to controls and visually evaluated. Plant response ratings, summarized in Table B, are based on a scale of 0 to 100 where 0 is no effect and 100 is complete control. A dash (-) response means no test result.

[9] = test system: ducksalad (Heteranthera limosa); test: Test B flooded paddy test; conditions: Flood, scale of 0 to 100, 0 is no effect, 100 is complete control, 13 to 15 d
Procedure: as §3

rice (Oryza sativa) = test: Test B flooded paddy test; conditions: Flood, scale of 0 to 100, 0 is no effect, 100 is complete control, 13 to 15 d
Procedure: as §3

[10] = test system: sedge, umbrella (small-flower umbrella sedge, Cyperus difformis); test: Test B flooded paddy test; conditions: Flood, scale of 0 to 100, 0 is no effect, 100 is complete control, 13 to 15 d
Procedure: as §3

| SMILES | Plant response rating, Barnyardgrass ([1]; Postemergence, 125 g ai/ha) | Plant response rating, Barnyardgrass ([1]; Postemergence, 500 g ai/ha) | Plant response rating, Corn (corn (Zea mays); Postemergence, 125 g ai/ha) | Plant response rating, Corn (corn (Zea mays); Postemergence, 500 g ai/ha) | Plant response rating, Corn (corn (Zea mays); Preemergence, 125 g ai/ha) | Plant response rating, Corn (corn (Zea mays); Preemergence, 500 g ai/ha) | Plant response rating, Crabgrass, Large ([2]; Postemergence, 125 g ai/ha) | Plant response rating, Crabgrass, Large ([2]; Postemergence, 500 g ai/ha) | Plant response rating, Crabgrass, Large ([2]; Preemergence, 125 g ai/ha) | Plant response rating, Crabgrass, Large ([2]; Preemergence, 500 g ai/ha) | Plant response rating, Foxtail, Giant ([3]; Postemergence, 125 g ai/ha) | Plant response rating, Foxtail, Giant ([3]; Postemergence, 500 g ai/ha) | Plant response rating, Foxtail, Giant ([3]; Preemergence, 125 g ai/ha) | Plant response rating, Foxtail, Giant ([3]; Preemergence, 500 g ai/ha) | Plant response rating, Morningglory ([4]; Postemergence, 125 g ai/ha) | Plant response rating, Morningglory ([4]; Postemergence, 500 g ai/ha) | Plant response rating, Morningglory ([4]; Preemergence, 125 g ai/ha) | Plant response rating, Morningglory ([4]; Preemergence, 500 g ai/ha) | Plant response rating, Pigweed ([5]; Postemergence, 125 g ai/ha) | Plant response rating, Pigweed ([5]; Postemergence, 500 g ai/ha) | also measured |
| --- | --- | --- | --- | --- | --- | --- | --- | --- | --- | --- | --- | --- | --- | --- | --- | --- | --- | --- | --- | --- | --- |
| Cc1cc(Oc2cccc(C(F)(F)F)n2)nn(-c2ccc(F)cc2)c1=O [Compound 11] | 0 | 0 | 0 | 0 | 0 | 0 | 10 | 20 | 0 | 10 | 10 | 20 | 0 | 0 | 20 | 30 | 0 | 0 | 60 | 70 | Plant response rating, Pigweed ([5]; Preemergence, 125 g ai/ha): 0; Plant response rating, Pigweed ([5]; Preemergence, 500 g ai/ha): 0; Plant response rating, Velvetleaf ([6]; Postemergence, 125 g ai/ha): 0; Plant response rating, Velvetleaf ([6]; Postemergence, 500 g ai/ha): 0; Plant response rating, Velvetleaf ([6]; Preemergence, 125 g ai/ha): 0; Plant response rating, Velvetleaf ([6]; Preemergence, 500 g ai/ha): 0; Plant response rating, Wheat ([7]; Postemergence, 125 g ai/ha): 0; Plant response rating, Wheat ([7]; Postemergence, 500 g ai/ha): 0; Plant response rating, Wheat ([7]; Preemergence, 125 g ai/ha): 0; Plant response rating, Wheat ([7]; Preemergence, 500 g ai/ha): 0; Plant response rating, Barnyardgrass ([8]; 250 g ai/ha): 0; Plant response rating, Ducksalad ([9]; 250 g ai/ha): 0; Plant response rating, Rice (rice (Oryza sativa); 250 g ai/ha): 0; Plant response rating, Sedge, Umbrella ([10]; 250 g ai/ha): 0 |
| Cc1cc(=O)n(-c2ccc(F)cc2)nc1Oc1cc(C(F)(F)F)ccn1 [Compound 10] | 0 | 0 | 0 | 10 | 0 | 0 | 10 | 20 | 0 | 10 | 0 | 10 | 0 | 20 | 30 | 30 | 0 | 0 | 30 | 60 | Plant response rating, Pigweed ([5]; Preemergence, 125 g ai/ha): 0; Plant response rating, Pigweed ([5]; Preemergence, 500 g ai/ha): 30; Plant response rating, Velvetleaf ([6]; Postemergence, 125 g ai/ha): 0; Plant response rating, Velvetleaf ([6]; Postemergence, 500 g ai/ha): 10; Plant response rating, Velvetleaf ([6]; Preemergence, 125 g ai/ha): 0; Plant response rating, Velvetleaf ([6]; Preemergence, 500 g ai/ha): 0; Plant response rating, Wheat ([7]; Postemergence, 125 g ai/ha): 0; Plant response rating, Wheat ([7]; Postemergence, 500 g ai/ha): 0; Plant response rating, Wheat ([7]; Preemergence, 125 g ai/ha): 0; Plant response rating, Wheat ([7]; Preemergence, 500 g ai/ha): 0; Plant response rating, Barnyardgrass ([8]; 250 g ai/ha): 0; Plant response rating, Ducksalad ([9]; 250 g ai/ha): 0; Plant response rating, Rice (rice (Oryza sativa); 250 g ai/ha): 0; Plant response rating, Sedge, Umbrella ([10]; 250 g ai/ha): 0 |
| Cc1cc(Oc2cc(C(F)(F)F)ccn2)nn(-c2ccc(F)cc2)c1=O [Compound 9] | 0 | 0 | 0 | 0 | 0 | 0 | 0 | 0 | 0 | 0 | 0 | 0 | 0 | 0 | 0 | 0 | 0 | 0 | 0 | 0 | Plant response rating, Pigweed ([5]; Preemergence, 125 g ai/ha): 0; Plant response rating, Pigweed ([5]; Preemergence, 500 g ai/ha): 0; Plant response rating, Velvetleaf ([6]; Postemergence, 125 g ai/ha): 0; Plant response rating, Velvetleaf ([6]; Postemergence, 500 g ai/ha): 0; Plant response rating, Velvetleaf ([6]; Preemergence, 125 g ai/ha): 0; Plant response rating, Velvetleaf ([6]; Preemergence, 500 g ai/ha): 0; Plant response rating, Wheat ([7]; Postemergence, 125 g ai/ha): 0; Plant response rating, Wheat ([7]; Postemergence, 500 g ai/ha): 0; Plant response rating, Wheat ([7]; Preemergence, 125 g ai/ha): 0; Plant response rating, Wheat ([7]; Preemergence, 500 g ai/ha): 0; Plant response rating, Barnyardgrass ([8]; 250 g ai/ha): 0; Plant response rating, Ducksalad ([9]; 250 g ai/ha): 0; Plant response rating, Rice (rice (Oryza sativa); 250 g ai/ha): 0; Plant response rating, Sedge, Umbrella ([10]; 250 g ai/ha): 0 |
| Cc1cc(=O)n(-c2cccc(C(F)(F)F)c2)nc1Oc1ccnc(C(F)(F)F)c1 [Compound 4] | 10 | 20 | 10 | 30 | 0 | 10 | 30 | 60 | 90 | 100 | 30 | 70 | 70 | 100 | 40 | 70 | 20 | 40 | 100 | 100 | Plant response rating, Barnyardgrass ([1]; Preemergence, 125 g ai/ha): 10; Plant response rating, Barnyardgrass ([1]; Preemergence, 500 g ai/ha): 40; Plant response rating, Pigweed ([5]; Preemergence, 125 g ai/ha): 100; Plant response rating, Pigweed ([5]; Preemergence, 500 g ai/ha): 100; Plant response rating, Velvetleaf ([6]; Postemergence, 125 g ai/ha): 90; Plant response rating, Velvetleaf ([6]; Postemergence, 500 g ai/ha): 100; Plant response rating, Velvetleaf ([6]; Preemergence, 125 g ai/ha): 10; Plant response rating, Velvetleaf ([6]; Preemergence, 500 g ai/ha): 20; Plant response rating, Wheat ([7]; Postemergence, 125 g ai/ha): 10; Plant response rating, Wheat ([7]; Postemergence, 500 g ai/ha): 20; Plant response rating, Wheat ([7]; Preemergence, 125 g ai/ha): 0; Plant response rating, Wheat ([7]; Preemergence, 500 g ai/ha): 10; Plant response rating, Barnyardgrass ([8]; 125 g ai/ha): 20; Plant response rating, Ducksalad ([9]; 125 g ai/ha): 65; Plant response rating, Rice (rice (Oryza sativa); 125 g ai/ha): 40; Plant response rating, Sedge, Umbrella ([10]; 125 g ai/ha): 70 |
| CCCOc1cc(=O)n(-c2ccc(C(F)(F)F)cc2)nc1Cc1ccnc(C(F)(F)F)c1 [Compound 19] | 10 | 20 | 10 | 10 | 0 | 0 | 10 | 20 | 70 | 90 | 10 | 20 | 40 | 70 | 10 | 30 | 0 | 10 | 80 | 80 | Plant response rating, Barnyardgrass ([1]; Preemergence, 125 g ai/ha): 0; Plant response rating, Barnyardgrass ([1]; Preemergence, 500 g ai/ha): 10; Plant response rating, Pigweed ([5]; Preemergence, 125 g ai/ha): 60; Plant response rating, Pigweed ([5]; Preemergence, 500 g ai/ha): 70; Plant response rating, Velvetleaf ([6]; Postemergence, 125 g ai/ha): 10; Plant response rating, Velvetleaf ([6]; Postemergence, 500 g ai/ha): 50; Plant response rating, Velvetleaf ([6]; Preemergence, 125 g ai/ha): 0; Plant response rating, Velvetleaf ([6]; Preemergence, 500 g ai/ha): 10; Plant response rating, Wheat ([7]; Postemergence, 125 g ai/ha): 0; Plant response rating, Wheat ([7]; Postemergence, 500 g ai/ha): 10; Plant response rating, Wheat ([7]; Preemergence, 125 g ai/ha): 0; Plant response rating, Wheat ([7]; Preemergence, 500 g ai/ha): 0; Plant response rating, Barnyardgrass ([8]; 125 g ai/ha): 0; Plant response rating, Ducksalad ([9]; 125 g ai/ha): 0; Plant response rating, Rice (rice (Oryza sativa); 125 g ai/ha): 0; Plant response rating, Sedge, Umbrella ([10]; 125 g ai/ha): 0 |
